# Test results from patent publication US5834453A, “Methods for the manufacture and use of antimicrobial sterol conjugates” (Lehigh University, priority 1997, dated 1998).
# Entries after “also recorded” stand apart in the source; their conditions may differ. Read-outs that look alike come from different tables or passages of the source.
# How the values were obtained:
# [1] = Hemolytic activity, minimal hemolytic concentration (MHC); type: cell-based, sheep; details: sheep, red blood cells;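 as to MCC: MCC here is the minimal hemolytic concentration (MHC)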
# Protocol: (§1) Hemolytic activity of the squalamine mimics according to the present invention were also studied by incubating sheep red blood cells for 24 hours at 37° C. in saline (final concentration of 0.5%) with or without respective concentrations of the squalamine mimics. The minimal hemolytic concentration (MHC) was determined as the lowest concentration of a mimic that raised visible hemolysis.
# C. neoformans (M68979) = experiment: MIC, micro-broth dilution; type: cell-based; details: Cryptococcus neoformans, 24 h, read-out: ANTIMICROBIAL ACTIVITY (MIC)
# Protocol: (§2) The antimicrobial activity of the compounds according to the present invention were compared with the results obtained for squalamine as reported in Proc. Nat. Acad. Sci. USA 90:1354 (1993), supra, the disclosure of which is incorporated in toto herein. The data reported in the following table is the minimum inhibitory concentration (MIC) required for complete inhibition of microbial growth. The MIC was determined utilizing known micro-broth dilution methods in which inocula of 10^6 /ml of the test organism were incubated in 0.5× trypticase soy broth at 35° C. for 24 hours. MIC's were also tested under various pH conditions, with calcium chloride or magnesium chloride, or with immobilized horse serum.
# (§3) The numbers in parentheses contained in the table correspond to accession numbers with the American Type Culture Collection (reference strains were either obtained from the American Type Culture Collection or from the Microbiology Laboratory at Memorial Sloan-Kettering Cancer Center; Bacterial strains were maintained on Columbia 5% sheep blood agar plates, and fungi were maintained on Sabouraud Dextrose agar plates).
# A. fumigatus (H29709) = experiment: MIC, micro-broth dilution; type: cell-based; details: Aspergillus fumigatus, 35° C., 24 hours, read-out: ANTIMICROBIAL ACTIVITY (MIC)
# Protocol: as §2, §3
# S. pyrogenes (19615) = experiment: MIC, micro-broth dilution; type: cell-based; details: 24 h, read-out: ANTIMICROBIAL ACTIVITY (MIC)
# Protocol: as §2, §3
# E. cloacae (13047) = experiment: MIC, micro-broth dilution; type: cell-based; details: Enterobacter cloacae, 35° C., 24 hours, read-out: ANTIMICROBIAL ACTIVITY (MIC)
# Protocol: as §2, §3
# S. epidermidis (12228) = experiment: MIC, micro-broth dilution; type: cell-based; details: Staphylococcus epidermidis, 35° C., 24 hours, read-out: ANTIMICROBIAL ACTIVITY (MIC)
# Protocol: as §2, §3
# E. faecium (T6480-9) = experiment: MIC, micro-broth dilution; type: cell-based; details: Enterococcus faecium, 35° C., 24 hours, read-out: ANTIMICROBIAL ACTIVITY (MIC)
# Protocol: as §2, §3
# S. pneumoniae (6305) = experiment: MIC, micro-broth dilution; type: cell-based; details: Streptococcus pneumoniae, 35° C., 24 hours, read-out: ANTIMICROBIAL ACTIVITY (MIC)
# Protocol: as §2, §3
# C. albicans (90028) = experiment: MIC, micro-broth dilution; type: cell-based; details: Candida albicans, 35° C., 24 hours, read-out: ANTIMICROBIAL ACTIVITY (MIC)
# Protocol: as §2, §3
# K. pneumoniae (13883) = experiment: MIC, micro-broth dilution; type: cell-based; details: Klebsiella pneumoniae, read-out: ANTIMICROBIAL ACTIVITY (MIC)
# Protocol: as §2, §3
# P. aeruginosa (10145) = experiment: MIC, micro-broth dilution; type: cell-based; details: Pseudomonas aeruginosa, 35° C., 24 hours, read-out: ANTIMICROBIAL ACTIVITY (MIC)
# Protocol: as §2, §3
# C. neoformans (90012) = experiment: MIC, micro-broth dilution; type: cell-based; details: Cryptococcus neoformans, 24 h, read-out: ANTIMICROBIAL ACTIVITY (MIC)
# Protocol: as §2, §3
# P. aeruginosa (2853) = experiment: MIC, micro-broth dilution; type: cell-based; details: Pseudomonas aeruginosa, 24 h, read-out: ANTIMICROBIAL ACTIVITY (MIC)
# Protocol: as §2, §3
# S. marcescens (13880) = experiment: MIC, micro-broth dilution; type: cell-based; details: for MIC: Serratia marcescens, 24 h, read-out: ANTIMICROBIAL ACTIVITY (MIC)
# Protocol: as §2, §3
# E. coli (25922) = experiment: MIC, micro-broth dilution; type: cell-based; details: Escherichia coli, 35° C., 24 hours, read-out: ANTIMICROBIAL ACTIVITY (MIC)
# Protocol: as §2, §3
# S. aureus (29213) = experiment: MIC, micro-broth dilution; type: cell-based; details: Staphylococcus aureus, 24 h, read-out: ANTIMICROBIAL ACTIVITY (MIC)
# Protocol: as §2, §3
# S. aureus (H20809) = experiment: MIC, micro-broth dilution; type: cell-based; details: Staphylococcus aureus, 24 h, read-out: ANTIMICROBIAL ACTIVITY (MIC)
# Protocol: as §2, §3
# P. vulgaris (13315) = experiment: MIC, micro-broth dilution; type: cell-based; details: Proteus vulgaris, 35° C., 24 hours, read-out: ANTIMICROBIAL ACTIVITY (MIC)
# Protocol: as §2, §3
# E. faecalis (29212) = experiment: MIC, micro-broth dilution; type: cell-based; details: Enterococcus faecalis, 35° C., 24 hours, read-out: ANTIMICROBIAL ACTIVITY (MIC)
# Protocol: as §2, §3
# S. aureus (25923) = experiment: MIC, micro-broth dilution; type: cell-based; details: Staphylococcus aureus, 35° C., 24 hours, read-out: ANTIMICROBIAL ACTIVITY (MIC)
# Protocol: as §2, §3
# A. fumigatus (H1120) = experiment: MIC, micro-broth dilution; type: cell-based; details: Aspergillus fumigatus, 35° C., 24 hours, read-out: ANTIMICROBIAL ACTIVITY (MIC)
# Protocol: as §2, §3
# S. agalactiae (13813) = experiment: MIC, micro-broth dilution; type: cell-based; details: Streptococcus agalactiae, 35° C., 24 hours, read-out: ANTIMICROBIAL ACTIVITY (MIC)
# Protocol: as §2, §3
# [2] = test system: various groups of microorganisms; experiment: Antimicrobial activity (MIC), all microorganisms tested; type: cell-based
# Protocol: as §2, §3
# sheep red blood cells = experiment: Hemolytic activity, minimal hemolytic concentration (MHC); type: cell-based;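 as to MCC: MCC here is the minimal hemolytic concentration (MHC)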
# Protocol: as §1
SMILES,MCC at 24 h [1],MIC (C. neoformans (M68979)),MIC (A. fumigatus (H29709)),MIC (S. pyrogenes (19615)),MIC (E. cloacae (13047)),MIC (S. epidermidis (12228)),MIC (E. faecium (T6480-9)),MIC (S. pneumoniae (6305)),MIC (C. albicans (90028)),MIC (P. aeruginosa (10145)),MIC (C. neoformans (90012)),MIC (P. aeruginosa (2853)),MIC (S. marcescens (13880)),MIC (E. coli (25922)),MIC (S. aureus (29213)),MIC (S. aureus (H20809)),MIC (P. vulgaris (13315)),MIC (E. faecalis (29212)),MIC (S. aureus (25923)),MIC (A. fumigatus (H1120)),further results
C[C@H](CCC(=O)NCCCNCCCCNCCCN)[C@H]1CC[C@H]2[C@@H]3CC[C@@H]4CCCC[C@]4(C)[C@H]3CC[C@]12C [SM-19],6.25 µg/mL,0.78 µg/mL,3.13 µg/mL,3.13 µg/mL,> 100 µg/mL,1.56 µg/mL,3.13 µg/mL,0.78 µg/mL,3.13 µg/mL,> 100 µg/mL,0.78 µg/mL,12.5 µg/mL,> 100 µg/mL,3.13 µg/mL,3.13 µg/mL,3.13 µg/mL,> 100 µg/mL,6.25 µg/mL,3.13 µg/mL,3.13 µg/mL,MIC (K. pneumoniae (13883); 24 h): 6.25 µg/mL; MIC (S. agalactiae (13813)): 3.13 µg/mL; antimicrobial activity (in words) [2]: highly active
C[C@H](CCC(=O)NCCCNCCCCNCCCN)[C@H]1CC[C@H]2[C@@H]3C[C@H](O)[C@@H]4C[C@H](O)CC[C@]4(C)[C@H]3CC[C@]12C [SM-28],> 100 µg/mL,3.13 µg/mL,25 µg/mL,1.56 µg/mL,> 100 µg/mL,3.13 µg/mL,50 µg/mL,50 µg/mL,6.25 µg/mL,25 µg/mL,3.13 µg/mL,25 µg/mL,> 100 µg/mL,50 µg/mL,6.25 µg/mL,6.25 µg/mL,50 µg/mL,50 µg/mL,6.25 µg/mL,25 µg/mL,MIC (K. pneumoniae (13883); 24 h): > 100 µg/mL; MIC (S. agalactiae (13813)): 12.5 µg/mL; antimicrobial activity (in words) [2]: lesser activity
C[C@H](CCC(=O)NCCCNCCCCNCCCN)[C@H]1CC[C@H]2[C@@H]3[C@H](O)C[C@@H]4C[C@H](O)CC[C@]4(C)[C@H]3CC[C@]12C [SM-34],25 µg/mL,3.13 µg/mL,12.5 µg/mL,0.78 µg/mL,12.5 µg/mL,0.78 µg/mL,6.25 µg/mL,3.13 µg/mL,3.13 µg/mL,25 µg/mL,0.78 µg/mL,12.5 µg/mL,12.5 µg/mL,3.13 µg/mL,1.56 µg/mL,1.56 µg/mL,12.5 µg/mL,3.13 µg/mL,0.78 µg/mL,12.5 µg/mL,"hemolytic activity (in words) (sheep red blood cells): unwanted hemolytic activity; MIC (K. pneumoniae (13883); K. pneumoniae (13883), 35° C., 24 hours): 8.25 µg/mL; activity against S. marcescens (S. marcescens (13880); in words): found even against S. marcescens; also recorded: effective against S. marcescens; MIC (S. agalactiae (13813)): 1.56 µg/mL; antimicrobial activity (in words) [2]: highly active"
